Laboratory results reported in patent publication US6030975A, “Carboxylic acid derivatives, their preparation and use in treating cancer” (priority 1997, dated 2000).

Legend:
DU-145 prostate tumor = test: DU-145 Model: human prostate (HTB 81) tumor fragments implanted subcutaneously in nude mice; format: in vivo
Method: For example, human tumors which have been grown in nude mice can be transplanted into new recipient mice using tumor fragments which are about 50 mg in size. The day of transplantation is designated as day 0. Five to fifteen days later, the mice are treated with the test compounds given as an intravenous or intraperitoneal injection, in groups of five to ten mice at each dose. Compounds are given daily for either 5, 10 or 15 days, at dosed from 0.1-1000 mg/kg of body weight.
Tumor diameters and body weights are measured periodically. Tumor mass is calculated using the diameters measured with Vernier calipers, and the formula:
(length×width2)/2=mg of tumor weight
Mean tumor weights are calculated for each treatment group relative to the untreated control tumors. The DU-145 Model is a specific example of this type of assay and is described below.
Human tumor fragments from prostate (HTB 81), which had been grown in nude mice were implanted subcutaneously via trochar, in the dorsal side of new recipient nude mice, as is well known in the art. The day of implantation is designated as day 0.
Treatment was commenced on day 11 post implantation using Compound I-1 of Table I. There were 6 mice in each treatment group with the mode of administration and amounts administered (mg/kg of body weight) described in Table XI. Compound I-1 was administered once a day for 10 days commencing, as earlier stated, at day 11 post implantation (Q1D×10:11).

human ETA receptor = target: T1, human ETA receptor (Homo sapiens, UniProt P25101); test: ETA receptor binding assay ([125I]-ET1) on membranes of CHO cells expressing cloned human ETA receptor; details: Table III
T1 construct: expressed in transfected cells; host or cells: CHO cells
T1 sequence (P25101 21-427): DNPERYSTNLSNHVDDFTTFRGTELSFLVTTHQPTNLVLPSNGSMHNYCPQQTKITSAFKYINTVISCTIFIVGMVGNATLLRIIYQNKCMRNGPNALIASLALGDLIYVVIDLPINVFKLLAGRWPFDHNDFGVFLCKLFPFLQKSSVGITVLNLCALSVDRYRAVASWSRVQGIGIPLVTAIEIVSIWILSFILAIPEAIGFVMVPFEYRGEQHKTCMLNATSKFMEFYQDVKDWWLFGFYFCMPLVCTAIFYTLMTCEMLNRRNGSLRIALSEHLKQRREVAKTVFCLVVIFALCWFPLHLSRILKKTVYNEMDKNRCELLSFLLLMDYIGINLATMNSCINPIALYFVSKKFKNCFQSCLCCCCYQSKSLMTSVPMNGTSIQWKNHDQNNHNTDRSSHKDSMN
Method: (§1) Cloned human ETA receptor-expressing CHO cells and guinea pig cerebellar membranes with >60% ETB compared with ETA receptors were used for binding studies.
The ETA receptor-expressing CHO cells were grown in F12 medium containing 10% fetal calf serum, 1% glutamine, 100 U/ml penicillin and 0.2% streptomycin (Gibco BRL, Gaithersburg, Md., USA). After 48 h, the cells were washed with PBS and incubated with 0.05% trypsin-containing PBS for 5 min. Neutralization was then carried out with F12 medium, and the cells were collected by centrifugation at 300×g. To lyze the cells, the pellet was briefly washed with lysis buffer (5 mM Tris-HCl, pH 7.4 with 10% glycerol) and then incubated at a concentration of 10^7 cells/ml of lysis buffer at 4° C. for 30 min. The membranes were centrifuged at 20,000×g for 10 min., and the pellet was stored in liquid nitrogen.
(§2) The nonspecific binding was determined using 10^-7 M ET1. After 30 min., the free and bound radioligand were separated by filtration through GF/B glass fiber filters (Whatman, England) on a Skatron cell collector (Skatron, Lier, Norway) and the filters were washed with ice-cold Tris-HCl buffer, pH 7.4 with 0.2% BSA. The radioactivity collected on the filters was quantified using a Packard 2200 CA liquid scintillation counter.
The Ki values shown in Table A were determined by non-linear regression analysis using the LIGAND program.

ETB receptor = target: T2, ETB receptor (Cavia porcellus, UniProt H0VTF3); test: ETB receptor binding assay ([125I]-RZ3) on guinea pig cerebellar membranes; details: Table III
T2 construct: Guinea pig cerebella were homogenized; from tissue; host or cells: guinea pig cerebellum membranes
T2 sequence (H0VTF3 27-415): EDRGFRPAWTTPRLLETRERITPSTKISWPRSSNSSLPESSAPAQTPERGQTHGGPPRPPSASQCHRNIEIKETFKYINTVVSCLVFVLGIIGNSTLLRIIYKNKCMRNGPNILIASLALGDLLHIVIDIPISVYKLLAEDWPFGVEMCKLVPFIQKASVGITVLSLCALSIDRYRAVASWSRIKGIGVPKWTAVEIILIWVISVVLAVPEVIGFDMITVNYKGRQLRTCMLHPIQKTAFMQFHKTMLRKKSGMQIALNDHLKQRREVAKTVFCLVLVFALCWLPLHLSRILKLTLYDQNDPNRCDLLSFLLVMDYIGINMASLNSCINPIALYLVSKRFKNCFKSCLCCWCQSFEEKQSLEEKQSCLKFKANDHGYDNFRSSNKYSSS
Method: as §1
Guinea pig cerebella were homogenized in a Potter-Elvejhem homogenizer and membranes were obtained by differential centrifugation at 1000×g for 10 min. and repeated centrifugation of the supernatant at 20,000×g for 10 min.
as §2

Structure (SMILES): COC(=O)C(Oc1nc(OC)cc(OC)n1)C(OC)(c1ccccc1)c1ccccc1 (stereo not drawn) [Compound I-1, Methyl 2-(4,6-dimethoxy-pyrimidin-2-yloxy)-3-methoxy-3,3-diphenylpropionate]
- Days for Tumor Weight = 1000 mg (DU-145 prostate tumor; 100 mg/kg IV, Q1Dx10:11): 39.3 days
- Mean Tumor Weight (MTW) on Day 33 (DU-145 prostate tumor; 100 mg/kg IV, Q1Dx10:11): 561 mg
- Days for Tumor Weight = 1000 mg (DU-145 prostate tumor; 150 mg/kg IP, Q1DX10:11): 59.3 days
- Mean Tumor Weight (MTW) on Day 33 (DU-145 prostate tumor; 150 mg/kg IP, Q1DX10:11): 407 mg
- Days for Tumor Weight = 1000 mg (DU-145 prostate tumor; 150 mg/kg IV, Q1DX10:11): 37.4 days
- Mean Tumor Weight (MTW) on Day 33 (DU-145 prostate tumor; 150 mg/kg IV, Q1DX10:11): 793 mg
- Days for Tumor Weight = 1000 mg (DU-145 prostate tumor; 220 mg/kg IP, Q1DX10:11): 50.9 days
- Mean Tumor Weight (MTW) on Day 33 (DU-145 prostate tumor; 220 mg/kg IP, Q1DX10:11): 470 mg
- MTW % T/C (DU-145 prostate tumor; Day 33, 100 mg/kg IV, Q1Dx10:11): 45.54%
- MTW % T/C (DU-145 prostate tumor; Day 33, 150 mg/kg IP, Q1DX10:11): 33.04%
- MTW % T/C (DU-145 prostate tumor; Day 33, 150 mg/kg IV, Q1DX10:11): 64.37%
- MTW % T/C (DU-145 prostate tumor; Day 33, 220 mg/kg IP, Q1DX10:11): 38.15%
- response to administration (reduction in the %T/C Mean Tumor Weight) (DU-145 prostate tumor; all doses, IV and IP): all treatment groups responded

Structure (SMILES): COc1cc(OC)nc(OC(C(=O)O)C(OC)(c2ccccc2)c2ccccc2)n1 (stereo not drawn) [Compound I-2, 2-(4,6-Dimethoxy-pyrimidin-2-yloxy)-3-methoxy-3,3-diphenylpropionic acid]
- Ki (human ETA receptor): 6 nM

Structure (SMILES): CCOC(c1ccccc1)(c1ccccc1)C(Oc1nc(OC)cc(OC)n1)C(=O)O (stereo not drawn) [Compound I-4]
- Ki (human ETA receptor): 7 nM

Structure (SMILES): CCCOC(c1ccccc1)(c1ccccc1)C(Oc1nc(OC)cc(OC)n1)C(=O)O (stereo not drawn) [Compound I-12]
- Ki (human ETA receptor): 19 nM

Structure (SMILES): COc1cc(OC)nc(OC(C(=O)O)C(OC)(c2ccc(F)cc2)c2ccc(F)cc2)n1 (stereo not drawn) [Compound I-60]
- Ki (ETB receptor): 970 nM
- Ki (human ETA receptor): 33 nM
